{"source": "ChEMBL document CHEMBL5143660", "about": "“Investigation on the chemical space of the substituted triazole thio-benzoxazepinone RIPK1 inhibitors” (Eur J Med Chem, 2022)", "key": {"[1]": {"molecular_target": "T1, Receptor-interacting serine/threonine-protein kinase 1 (Homo sapiens) (UniProt Q13546)", "T1 sequence (whole entry)": "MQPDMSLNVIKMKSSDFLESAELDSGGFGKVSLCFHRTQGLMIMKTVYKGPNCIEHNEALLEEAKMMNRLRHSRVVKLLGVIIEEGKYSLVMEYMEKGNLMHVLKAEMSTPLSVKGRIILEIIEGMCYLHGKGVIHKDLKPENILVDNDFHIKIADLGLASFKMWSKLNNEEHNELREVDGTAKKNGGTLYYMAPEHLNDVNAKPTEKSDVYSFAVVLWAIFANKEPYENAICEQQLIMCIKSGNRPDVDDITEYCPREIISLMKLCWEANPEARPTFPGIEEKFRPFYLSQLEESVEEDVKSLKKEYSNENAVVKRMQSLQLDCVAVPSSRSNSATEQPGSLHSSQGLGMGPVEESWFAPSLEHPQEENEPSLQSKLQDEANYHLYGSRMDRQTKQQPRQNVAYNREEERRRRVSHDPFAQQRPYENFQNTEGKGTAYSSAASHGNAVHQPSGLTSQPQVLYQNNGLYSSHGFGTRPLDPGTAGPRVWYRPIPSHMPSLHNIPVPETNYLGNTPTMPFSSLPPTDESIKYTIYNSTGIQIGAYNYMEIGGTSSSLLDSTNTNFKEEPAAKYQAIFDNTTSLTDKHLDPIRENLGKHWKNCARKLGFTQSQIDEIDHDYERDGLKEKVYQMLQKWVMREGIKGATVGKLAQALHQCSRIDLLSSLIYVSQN", "experiment": "Inhibition of RIPK1 phosphorylation in TSZ-induced human HT-29 cells pretreated with compound followed by TSZ stimulation and measured after 6 hrs by immunoblotting analysis", "assay_type": "cell-based", "conditions": "dose 0.5-20 nM, DDE = dose-dependent effect"}, "L929": {"test_system": "L929", "experiment": "Anti-necroptic activity in mouse L929 cells assessed as inhibition of TZ induced necroptosis pretreated with compound followed by TZ addition and measured after 12 hrs by celltiter-glo luminescent cell viability assay", "assay_type": "functional, cell-based", "conditions": "dose 0.078-10 µM, DDE = dose-dependent effect"}, "[2]": {"experiment": "Cytotoxicity against human HT-29 cells assessed as reduction in cell viability", "assay_type": "toxicity, cell-based"}, "[3]": {"molecular_target": "Receptor-interacting serine/threonine-protein kinase 3 (Homo sapiens) (UniProt Q9Y572)", "sequence (Q9Y572 whole entry, looked up)": "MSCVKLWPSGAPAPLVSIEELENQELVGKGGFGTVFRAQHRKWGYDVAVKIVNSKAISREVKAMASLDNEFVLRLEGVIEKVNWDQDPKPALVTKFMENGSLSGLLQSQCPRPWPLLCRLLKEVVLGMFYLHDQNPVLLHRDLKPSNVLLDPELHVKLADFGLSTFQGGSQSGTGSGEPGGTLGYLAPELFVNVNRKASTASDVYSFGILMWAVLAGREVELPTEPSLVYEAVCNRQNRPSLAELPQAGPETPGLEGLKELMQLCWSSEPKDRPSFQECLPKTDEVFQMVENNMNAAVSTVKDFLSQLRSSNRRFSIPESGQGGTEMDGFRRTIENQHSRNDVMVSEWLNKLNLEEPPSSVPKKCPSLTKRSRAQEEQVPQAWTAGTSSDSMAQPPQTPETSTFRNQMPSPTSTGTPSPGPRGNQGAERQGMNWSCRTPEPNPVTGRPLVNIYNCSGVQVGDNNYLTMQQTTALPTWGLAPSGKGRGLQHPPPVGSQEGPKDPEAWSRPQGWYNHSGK", "experiment": "Inhibition of RIPK3 phosphorylation in TSZ-induced human HT-29 cells at 20 nM pretreated with compound followed by TSZ stimulation and measured after 2 to 6 hrs by immunoblotting analysis", "assay_type": "cell-based", "conditions": "time 2-6 hrs"}, "HT-29 [4]": {"test_system": "HT-29", "experiment": "Anti-necroptic activity in human HT-29 cells assessed as inhibition of TSZ induced necroptosis measured after 16 to 24 hrs by celltiter-glo luminescent cell viability assay", "assay_type": "functional, cell-based"}, "U-937": {"test_system": "U-937", "experiment": "Anti-necroptic activity in human U-937 cells assessed as inhibition of TSZ induced necroptosis pretreated with compound followed by TSZ addition ans measured after 12 hrs by celltiter-glo luminescent cell viability assay", "assay_type": "functional, cell-based", "conditions": "dose 0.312-200 nM, DDE = dose-dependent effect"}, "HT-29 [5]": {"test_system": "HT-29", "experiment": "Inhibition of RIPK1-RIPK3-MLKL pathway in TSZ induced human HT-29 cells assessed as reduction in necrosome formation at 20 nM measured after 6 hrs by Western blot analysis", "assay_type": "cell-based"}, "[6]": {"molecular_target": "T2, Mixed lineage kinase domain-like protein (Homo sapiens) (UniProt Q8NB16)", "T2 sequence (whole entry)": "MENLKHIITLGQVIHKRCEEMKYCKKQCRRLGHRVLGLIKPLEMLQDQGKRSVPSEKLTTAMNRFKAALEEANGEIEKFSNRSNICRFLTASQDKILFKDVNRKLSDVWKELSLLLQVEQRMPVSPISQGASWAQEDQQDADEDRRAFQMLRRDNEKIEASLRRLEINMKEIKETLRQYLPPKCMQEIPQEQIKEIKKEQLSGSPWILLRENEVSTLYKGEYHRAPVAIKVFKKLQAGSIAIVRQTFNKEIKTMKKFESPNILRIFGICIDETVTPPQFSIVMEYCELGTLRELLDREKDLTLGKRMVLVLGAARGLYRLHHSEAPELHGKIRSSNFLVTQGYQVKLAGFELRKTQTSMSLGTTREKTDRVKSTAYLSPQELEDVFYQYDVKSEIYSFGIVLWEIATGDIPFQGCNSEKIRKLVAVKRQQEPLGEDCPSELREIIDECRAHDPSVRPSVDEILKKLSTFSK", "experiment": "Inhibition of downstream MLKL phosphorylation in TSZ-induced human HT-29 cells at 20 nM pretreated with compound followed by TSZ stimulation and measured after 2 to 6 hrs by immunoblotting analysis", "assay_type": "cell-based", "conditions": "time 2-6 hrs"}, "[7]": {"molecular_target": "T3, Receptor-interacting serine/threonine-protein kinase 1 (Homo sapiens, UniProt Q13546)", "T3 sequence (Q13546 whole entry)": "T1 sequence (whole entry)", "experiment": "Binding affinity to wild-type human partial length RIPK1 (M1 to K305 residues) expressed in bacterial expression system incubated for 1 hr under shaking condition by Kinomescan method"}, "HT-29 [8]": {"test_system": "HT-29", "experiment": "Anti-necroptic activity in human HT-29 cells assessed as inhibition of TSZ induced necroptosis measured after 12 hrs by celltiter-glo luminescent cell viability assay", "assay_type": "functional, cell-based", "conditions": "dose 0.195-200 nM, DDE = dose-dependent effect"}, "Mus musculus [9]": {"test_system": "Mus musculus", "experiment": "Anti-necroptic activity against mTNFalpha-induced systemic inflammatory response syndrome C57BL/6J mouse model assessed as protection of body temperature pretreated with compound at 5 to 20 mg/kg, IG administered as single dose followed by mTNFalpha injection measured after 2 to 3 hrs", "assay_type": "functional, organism-based", "conditions": "dose 5-20 mg/kg, time 2-3 hrs"}, "Mus musculus [10]": {"test_system": "Mus musculus", "experiment": "Anti-necroptic activity against mTNFalpha induced C57BL/6J mouse systemic inflammatory response syndrome model assessed as survival rate pretreated with compound at 5 to 20 mg/kg, IG administered as single dose followed by mTNFalpha injection and measured over 60 hrs", "assay_type": "functional", "conditions": "dose 5-20 mg/kg"}, "[11]": {"molecular_target": "T2, Mixed lineage kinase domain-like protein (Homo sapiens)", "experiment": "Inhibition of MLKL phosphorylation in TSZ-induced human HT-29 cells at 5 to 20 nM pretreated with compound followed by TSZ stimulation and measured after 6 hrs by immunoblotting analysis", "assay_type": "cell-based", "conditions": "dose 5-20 nM"}, "[12]": {"molecular_target": "T1, Receptor-interacting serine/threonine-protein kinase 1 (Homo sapiens)", "experiment": "Inhibition of RIPK1 phosphorylation in TSZ-induced human HT-29 cells at 20 nM pretreated with compound followed by TSZ stimulation and measured after 2 to 6 hrs by immunoblotting analysis", "assay_type": "cell-based", "conditions": "time 2-6 hrs"}, "[13]": {"molecular_target": "T2, Mixed lineage kinase domain-like protein (Homo sapiens)", "experiment": "Inhibition of MLKL phosphorylation in TSZ-induced human HT-29 cells pretreated with compound followed by TSZ stimulation and measured after 6 hrs by immunoblotting analysis", "assay_type": "cell-based", "conditions": "dose 0.5-20 nM, DDE = dose-dependent effect"}, "[14]": {"molecular_target": "T1, Receptor-interacting serine/threonine-protein kinase 1 (Homo sapiens)", "experiment": "Inhibition of RIPK1 phosphorylation in TSZ-induced human HT-29 cells at 5 to 20 nM pretreated with compound followed by TSZ stimulation and measured after 6 hrs by immunoblotting analysis", "assay_type": "cell-based", "conditions": "dose 5-20 nM"}, "[15]": {"molecular_target": "Receptor-interacting serine/threonine-protein kinase 3 (Homo sapiens) (UniProt Q9Y572)", "experiment": "Inhibition of RIPK3 phosphorylation in TSZ-induced human HT-29 cells pretreated with compound followed by TSZ stimulation and measured after 6 hrs by immunoblotting analysis", "assay_type": "cell-based", "conditions": "dose 0.5-20 nM, DDE = dose-dependent effect"}, "[16]": {"molecular_target": "Receptor-interacting serine/threonine-protein kinase 3 (Homo sapiens) (UniProt Q9Y572)", "experiment": "Inhibition of RIPK3 phosphorylation in TSZ-induced human HT-29 cells at 5 to 20 nM pretreated with compound followed by TSZ stimulation and measured after 6 hrs by immunoblotting analysis", "assay_type": "cell-based", "conditions": "dose 5-20 nM"}, "HT-29 [17]": {"test_system": "HT-29", "experiment": "Anti-necroptic activity in human HT-29 cells assessed as inhibition of TCZ induced necroptosis measured after 16 hrs by celltiter-glo luminescent cell viability assay", "assay_type": "functional, cell-based", "conditions": "dose 0.781-200 nM, DDE = dose-dependent effect"}}, "note": "Calls of active or inactive are those of the source. The calls are words filed in the database; no cut-off is given here."}
{"smiles": "CN1C(=S)[C@@H](NC(=O)c2nc(Cc3ccccc3)n(CCF)n2)COc2ccccc21", "values": [{"measurement": "inhibition", "setting": "[1]", "result": "Dde"}, {"measurement": "Activity", "setting": "L929", "result": "Dde"}, {"measurement": "CC50", "setting": "[2]", "result": "> 100000", "unit": "nM"}, {"measurement": "inhibition", "setting": "[3]", "result": 100, "unit": "%"}, {"measurement": "EC50", "setting": "HT-29 [4]", "result": 8.9, "unit": "nM"}, {"measurement": "Activity", "setting": "U-937", "result": "Dde"}, {"measurement": "inhibition", "setting": "HT-29 [5]", "result": "Active"}, {"measurement": "inhibition", "setting": "[6]", "result": "Active"}, {"measurement": "Kd", "setting": "[7]", "result": 60, "unit": "nM"}, {"measurement": "Activity", "setting": "HT-29 [8]", "result": "Dde"}, {"measurement": "Activity", "setting": "Mus musculus [9]", "result": "Active"}, {"measurement": "Activity", "setting": "Mus musculus [10]", "result": 90, "unit": "%"}, {"measurement": "inhibition", "setting": "[11]", "result": 100, "unit": "%"}, {"measurement": "inhibition", "setting": "[12]", "result": 100, "unit": "%"}, {"measurement": "inhibition", "setting": "[13]", "result": "Dde"}, {"measurement": "inhibition", "setting": "[14]", "result": 100, "unit": "%"}, {"measurement": "inhibition", "setting": "[15]", "result": "Dde"}, {"measurement": "inhibition", "setting": "[16]", "result": 100, "unit": "%"}, {"measurement": "Activity", "setting": "HT-29 [17]", "result": "Dde"}]}
